In ChEMBL document CHEMBL6092138, “Discovery of the potent covalent inhibitor with an acrylate warhead for SARS-CoV-2 3CL protease” (Bioorg Med Chem Lett, 2024):

Each compound was assayed on SARS-CoV-2 (assay: Antiviral activity against replicon RNA harboring SARS-CoV-2 infected in human Huh-7 cells assessed as inhibition of viral replication). Conditions: Severe acute respiratory syndrome coronavirus 2, Huh-7.
Type: functional, organism-based

SMILES	EC50 [nM]
COC(=O)/C=C/[C@H](C[C@@H]1CCNC1=O)NC(=O)[C@@H]1[C@@H]2[C@H](CN1C(=O)[C@@H](NC(=O)C(F)(F)F)C(C)(C)C)C2(C)C	45
CC(C)(C)[C@H](NC(=O)C(F)(F)F)C(=O)N1C[C@H]2[C@@H]([C@H]1C(=O)N[C@H](/C=C/C(N)=O)C[C@@H]1CCNC1=O)C2(C)C	> 5000
CC(C)(C)[C@H](NC(=O)C(F)(F)F)C(=O)N1C[C@H]2[C@@H]([C@H]1C(=O)N[C@H](C#N)C[C@@H]1CCNC1=O)C2(C)C [NIRMATRELVIR]	23
